Results as given in PubChem BioAssay AID256 (DTP/NCI, 2004).
Where “and” joins values, the source holds several entries; their conditions need not be identical. Equal entries are not always repeated. Toxic doses and inconclusive results are not listed. How the source made its calls: active means survival T/C of 150% or more; inactive means T/C below 125% in these data.

Test system: CD2F1 mice, L1210 leukemia ip, survival T/C
Assay: NCI In Vivo Anticancer Drug Screen. Data for tumor model L1210 Leukemia (intraperitoneal) in CD2F1 (CDF1) mice
Conditions: higher = longer survival
Method in brief: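 Tumor-bearing mice (transplanted tumor) were split into treated and vehicle control groups, and the measured endpoint of each treated group was divided by that of its vehicle controls.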

[1] = endpoint: mean survival time, dose: 100.0 mg/kg/injection, schedule: Q01DX001 (ip), vehicle: saline with Tween-80
[2] = endpoint: mean survival time, dose: 50.0 mg/kg/injection, schedule: Q01DX009 (ip), vehicle: saline with Tween-80
[3] = endpoint: mean survival time, dose: 100.0 mg/kg/injection, schedule: Q01DX009 (ip), vehicle: saline with Tween-80
[4] = endpoint: mean survival time, dose: 200.0 mg/kg/injection, schedule: Q01DX009 (ip), vehicle: saline with Tween-80
[5] = endpoint: mean survival time, dose: 100.0 mg/kg/injection, schedule: Q04DX003 (ip), vehicle: saline with Tween-80
[6] = endpoint: mean survival time, dose: 200.0 mg/kg/injection, schedule: Q04DX003 (ip), vehicle: saline with Tween-80
[7] = endpoint: mean survival time, dose: 400.0 mg/kg/injection, schedule: Q01DX009 (ip), vehicle: saline with Tween-80
[8] = endpoint: mean survival time, dose: 400.0 mg/kg/injection, schedule: Q04DX003 (ip), vehicle: saline with Tween-80
[9] = endpoint: mean survival time, dose: 200.0 mg/kg/injection, schedule: Q01DX001 (ip), vehicle: saline with Tween-80
[10] = endpoint: mean survival time, dose: 400.0 mg/kg/injection, schedule: Q01DX001 (ip), vehicle: saline with Tween-80
[11] = endpoint: mean survival time, dose: 100.0 mg/kg/injection, schedule: Q04DX002 (ip), vehicle: saline with Tween-80
[12] = endpoint: mean survival time, dose: 200.0 mg/kg/injection, schedule: Q04DX002 (ip), vehicle: saline with Tween-80
[13] = endpoint: mean survival time, dose: 400.0 mg/kg/injection, schedule: Q04DX002 (ip), vehicle: saline with Tween-80

Measured: T/C

C1CCC(CCC2CCCC[N-]2)[N-]C1.[I][Zn][I] (stereo unspecified)
inactive: endpoint: mean survival time, dose: 25.0 mg/kg/injection, schedule: Q01DX001 (ip), vehicle: saline with Tween-80 107 % of control | endpoint: mean survival time, dose: 50.0 mg/kg/injection, schedule: Q01DX001 (ip), vehicle: saline with Tween-80 86 % of control | [1] 86 % of control | endpoint: mean survival time, dose: 100.0 mg/kg/injection, schedule: Q01DX001 (ip), vehicle: saline 103 % of control | endpoint: mean survival time, dose: 200.0 mg/kg/injection, schedule: Q01DX001 (ip), vehicle: saline 100 % of control

O=C(O)C(=CCc1cccc2ccccc12)C(=O)O
inactive: endpoint: mean survival time, dose: 100.0 mg/kg/injection, schedule: Q04DX003 (ip), vehicle: Klucel (hydroxypropylcellulose) (HPC) 101 % of control | endpoint: mean survival time, dose: 200.0 mg/kg/injection, schedule: Q04DX003 (ip), vehicle: Klucel (hydroxypropylcellulose) (HPC) 100 % of control | endpoint: mean survival time, dose: 400.0 mg/kg/injection, schedule: Q04DX003 (ip), vehicle: Klucel (hydroxypropylcellulose) (HPC) 103 % of control

CC1=CC(=Nc2ccc(N(CCCl)CCCl)cc2)C=C(C)C1=O
inactive: endpoint: mean survival time, dose: 6.25 mg/kg/injection, schedule: Q01DX009 (ip), vehicle: Klucel (hydroxypropylcellulose) (HPC) 115 % of control and 108 % of control | endpoint: mean survival time, dose: 100.0 mg/kg/injection, schedule: Q01DX009 (ip), vehicle: Klucel (hydroxypropylcellulose) (HPC) 86 % of control and 96 % of control

CCOC(=O)C(=O)c1c[nH]c2ccccc12
inactive: endpoint: mean survival time, dose: 100.0 mg/kg/injection, schedule: Q01DX009 (ip), vehicle: saline sonified 89 % of control | endpoint: mean survival time, dose: 200.0 mg/kg/injection, schedule: Q01DX009 (ip), vehicle: saline sonified 95 % of control | endpoint: mean survival time, dose: 400.0 mg/kg/injection, schedule: Q01DX009 (ip), vehicle: saline sonified 94 % of control

O=C(CNC(=O)Nc1cccc([N+](=O)[O-])c1)N/N=C/c1ccccc1O
inactive: [2] 93 % of control | [3] 86 % of control | [4] 89 % of control

O=NN1CCOC1=NC1CCCCC1
inactive: endpoint: mean survival time, dose: 3.12 mg/kg/injection, schedule: Q01DX001 (ip), vehicle: distilled water + Tween-80 97 % of control | endpoint: mean survival time, dose: 6.25 mg/kg/injection, schedule: Q01DX001 (ip), vehicle: distilled water + Tween-80 94 % of control | endpoint: mean survival time, dose: 12.5 mg/kg/injection, schedule: Q01DX001 (ip), vehicle: distilled water + Tween-80 98 % of control | endpoint: mean survival time, dose: 25.0 mg/kg/injection, schedule: Q01DX001 (ip), vehicle: distilled water + Tween-80 97 % of control | endpoint: mean survival time, dose: 50.0 mg/kg/injection, schedule: Q01DX001 (ip), vehicle: distilled water + Tween-80 100 % of control | endpoint: mean survival time, dose: 100.0 mg/kg/injection, schedule: Q01DX001 (ip), vehicle: distilled water + Tween-80 100 % of control | endpoint: mean survival time, dose: 200.0 mg/kg/injection, schedule: Q01DX001 (ip), vehicle: distilled water + Tween-80 110 % of control | endpoint: mean survival time, dose: 400.0 mg/kg/injection, schedule: Q01DX001 (ip), vehicle: distilled water + Tween-80 110 % of control

O=C(O)C1CSCN1 (stereo unspecified)
inactive: endpoint: mean survival time, dose: 3.12 mg/kg/injection, schedule: Q01DX009 (ip), vehicle: saline 97 % of control | endpoint: mean survival time, dose: 3.12 mg/kg/injection, schedule: Q01DX009 (ip), vehicle: water 101 % of control | endpoint: mean survival time, dose: 6.25 mg/kg/injection, schedule: Q01DX009 (ip), vehicle: saline 98 % of control | endpoint: mean survival time, dose: 6.25 mg/kg/injection, schedule: Q01DX009 (ip), vehicle: water 93 % of control | endpoint: mean survival time, dose: 12.5 mg/kg/injection, schedule: Q01DX009 (ip), vehicle: saline 96 % of control | endpoint: mean survival time, dose: 12.5 mg/kg/injection, schedule: Q01DX009 (ip), vehicle: water 102 % of control | endpoint: mean survival time, dose: 25.0 mg/kg/injection, schedule: Q01DX009 (ip), vehicle: saline 93 % of control | endpoint: mean survival time, dose: 25.0 mg/kg/injection, schedule: Q01DX009 (ip), vehicle: water 98 % of control | endpoint: mean survival time, dose: 50.0 mg/kg/injection, schedule: Q01DX009 (ip), vehicle: saline 100 % of control | endpoint: mean survival time, dose: 50.0 mg/kg/injection, schedule: Q01DX009 (ip), vehicle: water 95 % of control | endpoint: mean survival time, dose: 100.0 mg/kg/injection, schedule: Q01DX009 (ip), vehicle: saline 95 % of control | endpoint: mean survival time, dose: 100.0 mg/kg/injection, schedule: Q01DX009 (ip), vehicle: water 95 % of control | endpoint: median survival time, dose: 3.12 mg/kg/injection, schedule: Q01DX009 (ip), vehicle: Klucel (hydroxypropylcellulose) (HPC) 93 % of control | endpoint: median survival time, dose: 6.25 mg/kg/injection, schedule: Q01DX009 (ip), vehicle: Klucel (hydroxypropylcellulose) (HPC) 95 % of control | endpoint: median survival time, dose: 12.5 mg/kg/injection, schedule: Q01DX009 (ip), vehicle: Klucel (hydroxypropylcellulose) (HPC) 102 % of control | endpoint: median survival time, dose: 15.0 mg/kg/injection, schedule: Q01DX005 (ip), vehicle: saline 108 % of control | endpoint: median survival time, dose: 25.0 mg/kg/injection, schedule: Q01DX009 (ip), vehicle: Klucel (hydroxypropylcellulose) (HPC) 91 % of control | endpoint: median survival time, dose: 50.0 mg/kg/injection, schedule: Q01DX005 (ip), vehicle: saline 101 % of control | endpoint: median survival time, dose: 50.0 mg/kg/injection, schedule: Q01DX009 (ip), vehicle: Klucel (hydroxypropylcellulose) (HPC) 95 % of control | endpoint: median survival time, dose: 60.0 mg/kg/injection, schedule: Q01DX005 (ip), vehicle: saline 103 % of control | endpoint: median survival time, dose: 100.0 mg/kg/injection, schedule: Q01DX009 (ip), vehicle: Klucel (hydroxypropylcellulose) (HPC) 91 % of control | endpoint: median survival time, dose: 120.0 mg/kg/injection, schedule: Q01DX005 (ip), vehicle: saline 100 % of control

CCCCCCCCCCCCCC(=O)N1CCOCC1
inactive: [3] 96 % of control | [5] 97 % of control | [4] 96 % of control | [6] 95 % of control | [7] 100 % of control | [8] 97 % of control

O=C(O)CCNc1ccc2c(c1)B(O)OC2
inactive: [5] 98 % of control | [6] 101 % of control | [8] 98 % of control

O=C(O)C(F)(F)C(F)(F)C(F)(F)C(F)=C(F)F
inactive: endpoint: mean survival time, dose: 75.0 mg/kg/injection, schedule: Q01DX001 (ip), vehicle: saline 103 % of control | endpoint: mean survival time, dose: 150.0 mg/kg/injection, schedule: Q01DX001 (ip), vehicle: saline 101 % of control

C[n+]1ccc(CCC(=O)Nc2ccccc2)cc1
inactive: [5] 100 % of control | [6] 100 % of control

COC(=O)N1c2ccc(C)cc2C=CC1C#N (stereo unspecified)
inactive: [3] 95 % of control | [5] 102 % of control | [4] 100 % of control | [6] 105 % of control | [7] 95 % of control | [8] 90 % of control

COC1OC(CCl)C(Cl)C(Cl)C1O (stereo unspecified)
inactive: [1] 102 % of control | [9] 96 % of control | [10] 102 % of control

O=C1OC2CCC(Br)CC2C=C1C1CCC([N+](=O)[O-])CC1 (stereo unspecified)
inactive: [11] 108 % of control | [12] 100 % of control | [13] 89 % of control

Nc1ncnc2c1ncn2C1OC(CO)C2[O][Sn]([c]3ccccc3)([c]3ccccc3)[O]C21 (stereo unspecified)
inactive: endpoint: mean survival time, dose: 1.56 mg/kg/injection, schedule: Q01DX005 (ip), vehicle: other 107 % of control | endpoint: mean survival time, dose: 3.13 mg/kg/injection, schedule: Q01DX005 (ip), vehicle: other 105 % of control | endpoint: mean survival time, dose: 6.25 mg/kg/injection, schedule: Q01DX005 (ip), vehicle: other 100 % of control | endpoint: mean survival time, dose: 12.5 mg/kg/injection, schedule: Q01DX005 (ip), vehicle: other 90 % of control and 107 % of control

O=S(=O)([O-])O.O=S(O)S(=O)O.[Co+3].[NH2-].[NH2-].[NH2-].[NH2-].[NH2-]
inactive: [11] 97 % of control

N#CC(C#N)=Cc1cccc(CC(O)(C(F)(F)F)C(F)(F)F)n1
inactive: [5] 105 % of control | [6] 94 % of control

O=C1O/C(=C2/OC(=O)c3ccccc32)c2ccccc21
inactive: endpoint: mean survival time, dose: 50.0 mg/kg/injection, schedule: Q04DX002 (ip), vehicle: saline with Tween-80 92 % of control | [11] 92 % of control | [12] 92 % of control | [13] 96 % of control

CC(=O)CC(C)(C)N
inactive: [2] 94 % of control | [3] 97 % of control | [5] 97 % of control | [4] 92 % of control

CC(=O)Nc1c(F)c(F)c(F)c(F)c1F
inactive: [1] 102 % of control | [9] 95 % of control | [10] 94 % of control

O=C(CC(=O)OCc1ccc([N+](=O)[O-])cc1)OCc1ccc([N+](=O)[O-])cc1
inactive: endpoint: mean survival time, dose: 200.0 mg/kg/injection, schedule: Q01DX001 (ip), vehicle: Klucel (hydroxypropylcellulose) (HPC) 96 % of control | endpoint: mean survival time, dose: 400.0 mg/kg/injection, schedule: Q01DX001 (ip), vehicle: Klucel (hydroxypropylcellulose) (HPC) 93 % of control
